Values of other authors, collected in patent US11439651B2 (priority 2020, dated 2022).

Assays:
SARS particles = settings: cultured human cells with SARS particles added
SARS = settings: pre-treatment with low concentrations; cultured cells or freshly obtained human nasal epithelial cells

CCCCCCCCCCCCC/C=C/[C@@H](O)[C@@H](N)CO [sphingosine]
cellular infection (SARS particles): prevented cellular infection
adhesion of and infection with the virus (SARS): prevented adhesion of and infection with the virus
